From patent publication US20160193148A1, “LIPOSOMAL FORMULATIONS FOR THE TREATMENT OF BACTERIAL INFECTIONS” (UNIVERSITY OF GEORGIA RESEARCH FOUNDATION, INC., priority 2013, published 2016)
Where “and” joins values, the source holds several entries; their conditions need not be identical. Equal values may be shown once. Marks after values point to notes of the source that are not given here.

How the values were obtained:
[1] = Repeated dose IV LG or FG: gentamicin in plasma, BAL cells and urine of foals
Procedure: Each dose was diluted in 250 ml of sterile 0.9% saline and administered over 15 minutes via an indwelling 14 G catheter placed in a jugular vein. Blood samples for plasma separation and measurement of gentamicin concentrations were obtained on day 1 and on day 7 at the times listed for study 1. Bronchoalveolar lavage fluid was collected 2, 6 and 24 hours after the end of infusion on day 7. Urine was collected the day prior to the first drug dose (day 0) and again 2 hours after the end of the infusion on days 3 and 7. Foals were sedated with xylazine hydrochloride (1.1 mg/kg bwt IV) and anesthetized with ketamine (2.2 mg/kg bwt IV) to allow passage of a urinary catheter using aseptic techniques. Urinalysis was performed and urine and concurrently obtained plasma samples were submitted for measurement of creatinine, γ-glutamyltransferase (GGT), protein, calcium, chloride, magnesium, sodium, and potassium concentrations. Fractional excretion of electrolytes, urinary GGT to creatinine ratio, and urinary protein to creatinine ratios were calculated. Prior to analysis for gentamicin concentration by LC-MS, urine and plasma samples were centrifuged at 400×g for 10 minutes and the supernatant was frozen at −80° C. until assayed.
(§1) A 10 mm diameter, 2.4 m BAL catheter^k was passed via nasal approach until wedged into a bronchus. The lavage solution consisted of 4 aliquots of 60 ml 0.9% saline solution infused and instantly aspirated. Immediately upon collection, the total volume of BAL fluid recovered was measured and a 3 ml aliquot saved in an EDTA tube from which total nucleated cell count was determined by use of a cell counter.^1 BAL fluid was immediately centrifuged at 400×g for 10 min. The BAL cells in the resultant pellet were washed, re-suspended in 500 μl of acetonitrile: 0.2% formic acid (1:1, v/v), vortexed, and frozen at −80° C. until assayed. Supernatant BAL fluid was also frozen at −80° C. until assayed. Before assaying, the cell pellet samples were thawed, vortexed vigorously and sonicated for 10 minutes to ensure complete cell lysis. The resulting suspension was centrifuged at 500×g for 10 minutes and the supernatant fluid was used to determine the intracellular concentrations of gentamicin.
Briefly, gentamicin was extracted from plasma (250 μl) and urine (500 μl) using protein precipitation with an equal volume of ice-cold 90:10 acetonitrile: 0.2% formic acid (v/v). Extracted samples were centrifuged (2° C. at 10,000×g for 10 min) twice. Two-hundred microliters of the supernatants were transferred to polypropylene inserts for injection. The supernatant derived from the lyzed BAL cell pellet was transferred to polypropylene inserts for direct injection without further processing. […] An aliquot of the resultant supernatant was then mixed with an equal volume of ice-cold acetonitrile, centrifuged (2° C. at 10,000×g for 10 minutes) and 200 μl was transferred to polypropylene inserts for injection. Calibration standards were prepared in drug-free foal plasma, BAL fluid or urine and then extracted as described above so that standard curves specific to each biologic matrix could be constructed. […] Analyte separation and LC-MS/MS measurement of gentamicin were performed exactly as described previously (Burton et al. (2013) Equine Vet J. 45, 507-511) except that BAL fluid samples, were introduced in the MS with a flow rate of 0.18 ml/minutes and a total run time of 8 minutes due to relatively low gentamicin concentration in those samples.
Estimation of the volume of PELF was determined by urea dilution method (Rennardet al. (1986) J. Appl. Physiol 60, 532-538).

[2] = BAL cell gentamicin concentrations after single IV or nebulized dose in foals; details: BAL cells
Procedure: Eight healthy 5-7-week-old Quarter Horse foals were randomly assigned to one of 4 groups using a balanced Latin-square design. Foals were considered healthy on the basis of physical examinations, complete blood cell counts and plasma biochemical profiles. […] The liposome gentamicin formulation was nebulized using Nortev FLEXINEB. For each treatment, gentamicin was administered over a period of 15 minutes. There was a washout period of 7-14 days between each treatment.
For the BAL collection, foals were sedated with xylazine and butorphanol. Concentrations of gentamicin were measured in plasma and in bronchoalveolar cells using HPLC-MS.
Eight foals received a single IV or nebulized dose (6.6 mg/kg bwt) of FG^h or LG in a balanced Latin square design. Beginning at 5-7 weeks of age, every foal received each of the 4 possible drug-route combinations with a 14-day washout period between each administration. Intravenous FG and LG were diluted in 250 ml of sterile 0.9% saline and administered via a jugular catheter as a constant rate infusion over 15 min. Nebulized FG and LG were administered by inhalation over 15 minutes via a commercial equine nebulizer. To ensure equivalent rate of delivery, FG was diluted to the same volume as LG with sterile 0.9% saline. Particle size of nebulized LG was verified using laser diffraction. Blood samples for plasma separation were obtained from a catheter placed in the contralateral jugular vein prior to each drug administration, and at 5, 10, 20, 30, 45 minutes and 1, 1.5, 2, 3, 4, 6, 8, 12, 16, 24 and 48 hours after the end of the 15 minute IV infusion or nebulization period. Bronchoalveolar lavage (BAL) fluid was collected at 2, 4, 8, 24, and 48 hours. Foals were sedated with xylazine hydrochloride (0.5 mg/kg bwt IV) and butorphanol tartrate (0.07 mg/kg bwt IV) prior to collection of BAL fluid. Prior to analysis for gentamicin concentration, blood samples were centrifuged at 400×g for 10 minutes and the resultant plasma frozen at −80° C. until assayed.
as §1
Briefly, gentamicin was extracted from plasma (250 μl) and urine (500 μl) using protein precipitation with an equal volume of ice-cold 90:10 acetonitrile: 0.2% formic acid (v/v). Extracted samples were centrifuged (2° C. at 10,000×g for 10 min) twice. Two-hundred microliters of the supernatants were transferred to polypropylene inserts for injection. The supernatant derived from the lyzed BAL cell pellet was transferred to polypropylene inserts for direct injection without further processing. […] An aliquot of the resultant supernatant was then mixed with an equal volume of ice-cold acetonitrile, centrifuged (2° C. at 10,000×g for 10 minutes) and 200 μl was transferred to polypropylene inserts for injection. Calibration standards were prepared in drug-free foal plasma, BAL fluid or urine and then extracted as described above so that standard curves specific to each biologic matrix could be constructed.

[3] = 6.6 mg/kg IV q 24 h, 7 doses, day 7

Q: Which “AUC0-t in BAL cells” value [1, 3] does the source give for gentamicin sulfate [Free Gentamicin] here?
A: 104.8 ± 35.1 µg·h/mL

Q: What about the “Cmax in BAL cells” value [1, 3] of the same substance?
A: 6.7 ± 1.9 µg/mL

Q: What about the “Concentration in BAL cells at 24 hours” value [1, 3] of the same substance?
A: 3.5 ± 1.8 µg/mL

Q: What about the “Tmax in BAL cells (median)” value ([1]; 6.6 mg/kg IV q 24 h, 7 doses, day 7, range 2-24 hours) of the same substance?
A: 6 h

Q: And the Urine gentamicin ([1]; Day 3)?
A: 94.8 ± 47.5 µg/mL

Q: What about the Urine gentamicin ([1]; Day 7) of the same substance?
A: 87.5 ± 5 µg/mL

Q: What about the “accumulation in plasma over 1 week of daily administration” value ([1]; day 1 vs day 7 plasma pharmacokinetic variables) of the same substance?
A: no accumulation

Q: And the AUC0-t ([2]; IV)?
A: 58.9 ± 41.5^a μg · h/ml

Q: And the C24 h ([2]; IV)?
A: 1.50 ± 1.23 µg/mL

Q: And the “Tmax (median and range)” value ([2]; IV)?
A: 2 (2-8)^a h

Q: What about the AUC0-24 ([2]; IV, Table 3) of the same substance?
A: 58.9 ± 41.5 µg·h/mL

Q: What about the C48 h ([2]; IV, Table 3) of the same substance?
A: 0.5 ± 0.6 µg/mL

Q: And the Cmax ([2]; IV, Table 3)?
A: 3.0 ± 1.7 µg/mL

Q: What about the C48 h ([2]; IV, Table 5) of the same substance?
A: 0.47 ± 0.62^a μg/ml

Q: And the Cmax ([2]; IV, Table 5, listed as FG)?
A: 3.0±1.7 μg/ml and 2.98 ± 1.67^a μg/ml

Q: What about the AUC0-24 ([2]; N (nebulized), Table 3) of the same substance?
A: 37.2 ± 18.9 µg·h/mL

Q: And the C48 h ([2]; N (nebulized), Table 3)?
A: 0.3 ± 0.2 µg/mL

Q: And the Cmax ([2]; N (nebulized), Table 3)?
A: 1.5 ± 0.6 µg/mL

Q: And the AUC0-t ([2]; Neb)?
A: 37.2 ± 19.0^a μg · h/ml

Q: And the C24 h ([2]; Neb)?
A: 1.01 ± 0.57 µg/mL

Q: And the “Tmax (median and range)” value ([2]; Neb)?
A: 3 (2-48)^a h

Q: And the C48 h ([2]; Neb, Table 5)?
A: 0.32 ± 0.23^a μg/ml

Q: And the Cmax ([2]; Neb, Table 5, listed as FG)?
A: 1.5±0.6 μg/ml and 1.49 ± 0.57^a μg/ml
